Measurements: patent US5080904A, “Liposome composition and its production” (Takeda Chemical Industries, Ltd., priority 1989, dated 1992)

assay: not given; details: Biochemica et Biophysica Acta, 859, 246-256 (1986); cited from earlier work

| Molecule | phase transition temperature of sulfatide, first value [°C] | phase transition temperature of sulfatide, second value [°C] |
| --- | --- | --- |
| sulfatide | 34.8 | 47.3 |

assay: Phase transition temperature of the lipid; type: physicochemical; details: not given

| phase transition temperature (found value) of phospholipid | Molecule |
| --- | --- |
| over 60 °C | CCCCCCCCCCCCCCCCCC(=O)OCC(COP(=O)(O)OCCN)OC(=O)CCCCCCCCCCCCCCCCC (centres unmarked) [DSPE, disteraroylphosphatidylethanolamine] |
| 55 °C | CCCCCCCCCCCCCCCCCC(=O)OCC(COP(=O)(O)OCC(O)CO)OC(=O)CCCCCCCCCCCCCCCCC (centres unmarked) [DSPG, distearoylphosphatidylglycerol] |
| 35.3 °C | myristoylpalmitoylphosphatidylcholine [MPPC] |
| 27.2 °C | CCCCCCCCCCCCCCCC(=O)OC[C@H](COP(=O)([O-])OCC[N+](C)(C)C)OC(=O)CCCCCCCCCCCCC [PMPC, palmitoylmyristoylphosphatidylcholine] |
| 41 °C | dipalmitoylsphingomyelin [DPSM] |
| 47.4 °C | CCCCCCCCCCCCCCCCCC(=O)O[C@H](COC(=O)CCCCCCCCCCCCCCC)COP(=O)([O-])OCC[N+](C)(C)C [PSPC, palmitoylstearoylphosphatidylcholine] |
| 44.0 °C | CCCCCCCCCCCCCCCCCC(=O)OC[C@H](COP(=O)([O-])OCC[N+](C)(C)C)OC(=O)CCCCCCCCCCCCCCC [SPPC, stearoylpalmitoylphosphatidylcholine] |
| 38 °C | CCCCCCCCCCCCCC(=O)OCC(COP(=O)(O)OCC(N)C(=O)O)OC(=O)CCCCCCCCCCCCC (centres unmarked) [DMPS, dimyristoylphosphatidylserine] |
| 23 °C | CCCCCCCCCCCCCC(=O)OCC(COP(=O)(O)OCC(O)CO)OC(=O)CCCCCCCCCCCCC (centres unmarked) [DMPG, dimyristoylphosphatidylglycerol] |
| 41 °C | CCCCCCCCCCCCCCCC(=O)OCC(COP(=O)(O)OCC(O)CO)OC(=O)CCCCCCCCCCCCCCC (centres unmarked) [DPPG, dipalmitoylphosphatidylglycerol] |
| 57 °C | distearoylsphingomyelin [DSSM] |

| Molecule | phase transition temperature (found value) of phospholipid |
| --- | --- |
| CCCCCCCCCCCCCCCC(=O)OCC(COP(=O)(O)OCC(N)C(=O)O)OC(=O)CCCCCCCCCCCCCCC (centres unmarked) [DPPS, dipalmitoylphosphatidylserine] | 51 °C |
| CCCCCCCCCCCCCC(=O)OCC(COP(=O)(O)OCCN)OC(=O)CCCCCCCCCCCCC (centres unmarked) [DMPE, dimyristoylphosphatidylethanolamine] | 50 °C |
| CCCCCCCCCCCCCCCC(=O)OC[C@H](COP(=O)([O-])OCC[N+](C)(C)C)OC(=O)CCCCCCCCCCCCCCC [DPPC, dipalmitoylphosphatidylcholine] | 41.4 °C |
| CCCCCCCCCCCCCC(=O)OC[C@H](COP(=O)([O-])OCC[N+](C)(C)C)OC(=O)CCCCCCCCCCCCC [DMPC, dimyristoylphosphatidylcholine] | 23.9 °C |
| CCCCCCCCCCCCCCCCCC(=O)OCC(COP(=O)([O-])OCC[N+](C)(C)C)OC(=O)CCCCCCCCCCCCCCCCC (centres unmarked) [DSPC, distearoylphosphatidylcholine] | 54.9 °C |
| CCCCCCCCCCCCCCCCCC(=O)OCC(COP(=O)(O)OCC(N)C(=O)O)OC(=O)CCCCCCCCCCCCCCCCC (centres unmarked) [DSPS, distearoylphosphatidylserine] | over 50 °C |
| CCCCCCCCCCCCCCCC(=O)OCC(COP(=O)(O)OCCN)OC(=O)CCCCCCCCCCCCCCC (centres unmarked) [DPPE, dipalmitoylphosphatidylethanolamine] | 60 °C |
